The values below come from patent US5401512A, “Delayed release oral dosage forms for treatment of intestinal disorders” (priority 1991, dated 1995).

The conditions of data set [1]: cited from earlier work; for Absorption before reaching the colon: oral administration, sulphapyridine and 5-ASA without the azo-bond.
Data set [2] in a line: Total urinary excretion of 5-ASA and N-acetyl-5-ASA after single oral dose in seven healthy volunteers. Format: in vivo, healthy volunteers (human). Particulars: 7 volunteers. On the procedure:
(§1) Each of the batches of coated granules were separately packed into size 00 hard gelatin capsules (LOK-CAP, Eli Lilly) in an amount of 400 mg granules per capsule. The capsules were then spray coated with […] per capsule of a coating solution of the following formula: […]
(§2) Seven healthy volunteers were then each given blind on three separate occasions a single dose consisting of (a) 8 tablets of enteric coated 500 mg sulphasalazine tablets, (b) 8 of the enteric coated capsules containing the 20% Eudragit coated 5-ASA granules, and (c) 8 of the enteric coated capsules containing the 25% Eudragit coated 5-ASA granules. The serum levels of 5-ASA and N-acetyl-5-ASA at various times following administration were measured together with the total urinary excretion of 5-ASA and N-acetyl-5-ASA. In each case the values are given to three significant figures with 0 representing less than 2 ng/ml.

A short description of data set [3]: Serum levels of 5-ASA and N-acetyl-5-ASA after single oral dose in seven healthy volunteers. Format: in vivo, healthy volunteers (human). Particulars: 7 volunteers. On the procedure: as §1
as §2, with “ng/ml. The following abbreviations are used:” for “ng/ml.”
Tmax =time for the maximum serum concentration in hours, median and interquartials ranges
Cmax =maximum serum concentration attained in ng/ml
Thalf =estimated biological half life of elimination
KE=estimated first order in elimination rate constant

`Nc1ccc(O)c(C(=O)O)c1` [5-ASA, 5-amino-salicylic acid]: the “Pharmacologically active agent in treatment of colonic disease with SASP” value in data set [1] (Khan et al, The Lancet 1977) is given as “pharmacologically active agent”. Further, in data set [1], the “Absorption before reaching the colon” value is on record as “almost entirely absorbed from the small intestine before reaching the colon”.

Regarding `O=C(O)c1cc(/N=N/c2ccc(S(=O)(=O)Nc3ccccn3)cc2)ccc1O` [Sulphasalazine, Salicylazosulphapyridine], the “Mean urinary excretion of 5-ASA” value in data set [2] (5-ASA) stood at 0 ± 0 ng/mL. In addition, the “Mean urinary excretion of N-Ac-5-ASA” value in data set [2] (N-Ac-5-ASA) is 170 ± 35 ng/mL. The “Thalf (estimated biological half life of elimination) of 5-ASA” value in data set [3] (5-ASA) is recorded as 19.4 ± 12.9. Also, the “Thalf (estimated biological half life of elimination) of N-Ac-5-ASA” value in data set [3] (N-Ac-5-ASA) is 60.1 ± 50.1. In data set [1], the “Absorption before reaching the colon” value is reported as “only absorbed to a limited extent before reaching the colon”.

Regarding `Nc1ccc(S(=O)(=O)Nc2ccccn2)cc1` [sulphapyridine], in data set [1], the “Absorption before reaching the colon” value was “almost entirely absorbed from the small intestine before reaching the colon”.
